From ChEMBL document CHEMBL5715954, “Silencing c-Myc translation as a therapeutic strategy through targeting PI3Kδ and CK1ε in hematological malignancies” (Blood, 2017) come the findings set out here.

The structures appear in SMILES notation.

Holding throughout (set-up): scale not given: the % may be the effect or the level left
In assay [1] the target is T1, Serine/threonine-protein kinase ULK3 (Homo sapiens) (UniProt Q6PHR2).
T1 sequence (whole entry): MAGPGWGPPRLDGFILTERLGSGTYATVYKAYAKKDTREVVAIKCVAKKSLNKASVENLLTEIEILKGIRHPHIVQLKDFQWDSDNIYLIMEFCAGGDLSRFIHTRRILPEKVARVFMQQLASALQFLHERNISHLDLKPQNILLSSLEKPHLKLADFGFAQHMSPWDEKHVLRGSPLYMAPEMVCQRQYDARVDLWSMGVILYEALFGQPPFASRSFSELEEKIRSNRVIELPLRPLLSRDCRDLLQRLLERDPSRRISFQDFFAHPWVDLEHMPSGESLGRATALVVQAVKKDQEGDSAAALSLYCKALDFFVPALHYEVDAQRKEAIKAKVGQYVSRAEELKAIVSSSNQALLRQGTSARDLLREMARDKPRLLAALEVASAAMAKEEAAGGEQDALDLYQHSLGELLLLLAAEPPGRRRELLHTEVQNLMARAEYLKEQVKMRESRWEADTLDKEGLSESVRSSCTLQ
Nature of the assay: Inhibition of human ULK3 assessed as enzyme activity at 1 uM using myelin basic protein as substrate preincubated for 20 mins followed by [gamma-33P]-ATP addition and measured after 120 mins by radiometric Hot-SpotSM Kinase assay relative to control.

Assay [2] has as its target T2, Ephrin type-A receptor 8 (Homo sapiens) (UniProt P29322).
T2 sequence (whole entry): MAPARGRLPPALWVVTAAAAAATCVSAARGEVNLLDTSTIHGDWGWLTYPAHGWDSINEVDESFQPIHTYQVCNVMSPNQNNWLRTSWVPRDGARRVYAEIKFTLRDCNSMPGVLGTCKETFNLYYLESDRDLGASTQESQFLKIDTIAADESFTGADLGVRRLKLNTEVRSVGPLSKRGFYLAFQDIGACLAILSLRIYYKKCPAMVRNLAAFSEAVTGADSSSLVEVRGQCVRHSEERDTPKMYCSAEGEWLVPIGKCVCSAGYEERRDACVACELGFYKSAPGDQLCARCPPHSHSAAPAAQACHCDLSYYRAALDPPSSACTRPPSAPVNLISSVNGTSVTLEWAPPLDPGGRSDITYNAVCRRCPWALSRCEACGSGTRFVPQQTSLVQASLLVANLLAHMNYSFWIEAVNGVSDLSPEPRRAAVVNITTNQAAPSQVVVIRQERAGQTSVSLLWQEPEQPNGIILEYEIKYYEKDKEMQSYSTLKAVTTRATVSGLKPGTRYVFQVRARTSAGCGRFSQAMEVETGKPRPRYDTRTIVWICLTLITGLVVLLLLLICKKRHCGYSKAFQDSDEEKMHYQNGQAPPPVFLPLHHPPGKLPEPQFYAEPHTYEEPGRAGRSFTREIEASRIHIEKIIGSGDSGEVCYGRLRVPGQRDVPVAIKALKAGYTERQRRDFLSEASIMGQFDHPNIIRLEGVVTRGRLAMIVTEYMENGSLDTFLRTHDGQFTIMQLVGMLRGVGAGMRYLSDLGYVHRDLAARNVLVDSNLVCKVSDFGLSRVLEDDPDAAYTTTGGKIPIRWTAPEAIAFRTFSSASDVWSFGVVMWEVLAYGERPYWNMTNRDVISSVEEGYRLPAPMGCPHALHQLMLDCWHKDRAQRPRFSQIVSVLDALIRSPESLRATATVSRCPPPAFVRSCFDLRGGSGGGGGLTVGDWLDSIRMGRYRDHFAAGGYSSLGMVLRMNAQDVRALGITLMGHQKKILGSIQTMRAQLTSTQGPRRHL
Nature of the assay: Inhibition of human EPHA8 assessed as enzyme activity at 1 uM using poly[Glu:Tyr] (4:1) as substrate preincubated for 20 mins followed by [gamma-33P]-ATP addition and measured after 120 mins by radiometric Hot-SpotSM Kinase assay relative to control.

Assay [3] addresses Phosphorylase b kinase gamma catalytic chain, skeletal muscle/heart isoform (Homo sapiens) (UniProt Q16816). Nature of the assay: Inhibition of human PHKg1 assessed as enzyme activity at 1 uM using KKLNRTLSFAEPG as substrate preincubated for 20 mins followed by [gamma-33P]-ATP addition and measured after 120 mins by radiometric Hot-SpotSM Kinase assay relative to control.
Assay [4] concerns the target MAP kinase-interacting serine/threonine-protein kinase 2 (Homo sapiens) (UniProt Q9HBH9). Put plainly: Inhibition of human MNK2 assessed as enzyme activity at 1 uM using myelin basic protein as substrate preincubated for 20 mins followed by [gamma-33P]-ATP addition and measured after 120 mins by radiometric Hot-SpotSM Kinase assay relative to control.
For assay [5], the target named is T3, Serine/threonine-protein kinase DCLK1 (Homo sapiens) (UniProt O15075).
T3 sequence (whole entry): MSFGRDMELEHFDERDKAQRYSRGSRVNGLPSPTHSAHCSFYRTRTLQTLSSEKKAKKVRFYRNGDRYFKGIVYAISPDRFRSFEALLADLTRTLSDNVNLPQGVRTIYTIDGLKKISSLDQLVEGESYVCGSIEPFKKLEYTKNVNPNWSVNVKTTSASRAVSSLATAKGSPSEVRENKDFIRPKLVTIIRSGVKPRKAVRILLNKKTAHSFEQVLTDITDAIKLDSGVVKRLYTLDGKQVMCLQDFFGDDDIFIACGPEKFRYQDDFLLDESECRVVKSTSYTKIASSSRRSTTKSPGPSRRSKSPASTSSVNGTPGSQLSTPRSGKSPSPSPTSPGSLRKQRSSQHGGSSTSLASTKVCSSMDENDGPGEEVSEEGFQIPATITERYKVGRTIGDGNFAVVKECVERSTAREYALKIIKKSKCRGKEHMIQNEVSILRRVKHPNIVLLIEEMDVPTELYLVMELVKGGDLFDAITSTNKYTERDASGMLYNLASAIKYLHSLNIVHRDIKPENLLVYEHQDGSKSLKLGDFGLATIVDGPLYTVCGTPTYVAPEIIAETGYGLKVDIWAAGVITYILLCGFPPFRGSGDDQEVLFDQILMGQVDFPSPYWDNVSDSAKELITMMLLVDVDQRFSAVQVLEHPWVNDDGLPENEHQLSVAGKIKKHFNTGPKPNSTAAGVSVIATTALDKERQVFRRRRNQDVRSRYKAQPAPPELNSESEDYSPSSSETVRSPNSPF
Nature of the assay: Inhibition of human DCAMKL1 assessed as enzyme activity at 1 uM using KKLNRTLSFAEPG as substrate preincubated for 20 mins followed by [gamma-33P]-ATP addition and measured after 120 mins by radiometric Hot-SpotSM Kinase assay relative to control.

Assay [6] has as its target Serine/threonine-protein kinase 38 (Homo sapiens) (UniProt Q15208). Put plainly: Inhibition of human STK38 assessed as enzyme activity at 1 uM using KKRNRRLSVA as substrate preincubated for 20 mins followed by [gamma-33P]-ATP addition and measured after 120 mins by radiometric Hot-SpotSM Kinase assay relative to control.
Assay [7] deals with MAP kinase-activated protein kinase 2 (Homo sapiens) (UniProt P49137). Nature of the assay: Inhibition of human MAPKAPK2 assessed as enzyme activity at 1 uM using KKLNRTLSVA as substrate preincubated for 20 mins followed by [gamma-33P]-ATP addition and measured after 120 mins by radiometric Hot-SpotSM Kinase assay relative to control.
Chain of MAP kinase-activated protein kinase 2 (Homo sapiens) (P49137 whole entry, looked up): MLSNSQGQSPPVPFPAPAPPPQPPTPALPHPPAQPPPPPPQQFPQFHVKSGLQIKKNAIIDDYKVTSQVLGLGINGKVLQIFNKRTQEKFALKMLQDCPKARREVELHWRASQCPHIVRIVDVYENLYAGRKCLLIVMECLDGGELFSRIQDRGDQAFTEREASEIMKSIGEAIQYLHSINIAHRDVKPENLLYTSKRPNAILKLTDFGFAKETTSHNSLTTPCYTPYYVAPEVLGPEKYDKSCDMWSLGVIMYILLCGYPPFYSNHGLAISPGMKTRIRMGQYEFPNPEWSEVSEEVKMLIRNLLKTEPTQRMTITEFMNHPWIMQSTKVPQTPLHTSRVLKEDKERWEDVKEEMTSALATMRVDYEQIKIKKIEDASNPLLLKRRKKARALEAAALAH

Chain of Serine/threonine-protein kinase 38 (Homo sapiens) (Q15208 2-465 limits assumed): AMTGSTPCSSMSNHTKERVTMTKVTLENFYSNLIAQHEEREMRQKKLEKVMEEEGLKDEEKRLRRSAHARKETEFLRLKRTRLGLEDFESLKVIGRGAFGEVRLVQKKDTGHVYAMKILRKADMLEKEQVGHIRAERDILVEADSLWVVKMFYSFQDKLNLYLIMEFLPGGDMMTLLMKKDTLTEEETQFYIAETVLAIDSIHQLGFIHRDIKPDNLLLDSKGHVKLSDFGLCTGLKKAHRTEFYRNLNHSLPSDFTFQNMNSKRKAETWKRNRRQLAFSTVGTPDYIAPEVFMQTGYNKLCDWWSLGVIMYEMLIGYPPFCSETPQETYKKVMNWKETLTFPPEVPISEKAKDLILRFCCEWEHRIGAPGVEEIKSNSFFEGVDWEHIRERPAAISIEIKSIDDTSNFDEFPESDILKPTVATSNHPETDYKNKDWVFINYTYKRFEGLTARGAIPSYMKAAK
Chain of Phosphorylase b kinase gamma catalytic chain, skeletal muscle/heart isoform (Homo sapiens) (Q16816 whole entry, looked up, canonical isoform): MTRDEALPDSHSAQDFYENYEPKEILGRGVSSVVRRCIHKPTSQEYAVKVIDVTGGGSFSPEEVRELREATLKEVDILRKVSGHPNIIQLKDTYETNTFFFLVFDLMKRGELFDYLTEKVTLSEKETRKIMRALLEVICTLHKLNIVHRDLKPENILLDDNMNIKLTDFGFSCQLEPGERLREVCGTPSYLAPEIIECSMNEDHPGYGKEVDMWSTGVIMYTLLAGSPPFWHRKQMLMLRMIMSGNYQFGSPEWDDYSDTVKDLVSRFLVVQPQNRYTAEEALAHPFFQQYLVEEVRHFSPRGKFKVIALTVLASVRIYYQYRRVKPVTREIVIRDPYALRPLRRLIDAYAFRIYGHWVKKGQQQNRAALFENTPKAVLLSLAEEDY
Chain of MAP kinase-interacting serine/threonine-protein kinase 2 (Homo sapiens) (Q9HBH9 whole entry, looked up): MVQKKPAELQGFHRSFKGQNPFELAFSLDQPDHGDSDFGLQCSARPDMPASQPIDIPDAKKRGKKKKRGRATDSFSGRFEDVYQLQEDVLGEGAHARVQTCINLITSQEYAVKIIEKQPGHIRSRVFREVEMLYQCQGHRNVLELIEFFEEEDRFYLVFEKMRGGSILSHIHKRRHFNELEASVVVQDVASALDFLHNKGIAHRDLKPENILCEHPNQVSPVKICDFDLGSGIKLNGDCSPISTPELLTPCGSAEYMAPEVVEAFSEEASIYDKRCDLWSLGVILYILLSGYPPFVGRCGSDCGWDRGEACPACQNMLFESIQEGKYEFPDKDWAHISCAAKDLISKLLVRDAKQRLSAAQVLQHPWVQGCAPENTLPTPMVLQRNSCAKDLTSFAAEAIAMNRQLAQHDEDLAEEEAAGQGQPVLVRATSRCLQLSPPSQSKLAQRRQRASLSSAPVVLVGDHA

On to `C[C@H](Nc1ncnc2nc[nH]c12)c1cc2cccc(Cl)c2c(=O)n1-c1ccccc1`, for which the Activity was 93.2% in assay [1]; 99.1% in assay [2]; 98.4% in assay [3]; 99.9% in assay [4]; 89.4% in assay [5]; 86.5% in assay [6]. Also, the Activity in assay [7] turned out to be 96.5%.

Regarding `CC[C@H](Nc1ncnc2[nH]cnc12)c1nc2cccc(F)c2c(=O)n1-c1ccccc1`, the Activity was 89.3% in assay [1]; 97.6% in assay [2]; 99% in assay [3]; 105% in assay [4]; 89.3% in assay [5]; 94.5% in assay [6]. The Activity in assay [7] turned out to be 96.2%.

As to `CC(C)Oc1ccc(-c2nn([C@@H](C)c3oc4ccc(F)cc4c(=O)c3-c3cccc(F)c3)c3ncnc(N)c23)cc1F` [UMBRALISIB], the Activity was 93.8% in assay [1]; 95.8% in assay [2]; 95.4% in assay [3]; 102% in assay [4]; 88.3% in assay [5]; 91.4% in assay [6]. The Activity in assay [7] came out at 91.4%.
